# Assay results as given in patent publication US20140099662A1, “PHOTOTOXICITY TEST METHOD” (SUMITOMO CHEMICAL COMPANY, LIMITED, priority 2011, published 2014).
# Like-named read-outs stand apart in the source and are kept apart here.
# How the values were obtained:
# Balb/c 3T3 cells = experiment: in vitro
# Method: (§1) “Balb/c 3T3 cells” are connective tissue cells and fibroblasts.
# (§2) The “Balb/c 3T3 cells” cultured in DMEM medium supplemented with 10% bovine serum and L-glutamine were treated with 0.25% trypsin to collect the cells from a culture dish. The collected cells were seeded in a 96-well culture dish previously coated with a 0.1% gelatin solution at 10000 cells per well and then cultured in DMEM medium supplemented with 10% bovine serum and […] in an incubator at 37° C. and 5% CO2 overnight.
# (§3) After the cultivation, the medium was removed from the 96-well culture dish using an aspirator and Earle's Balanced Salt Solution (EBSS) was then added to the 96-well culture dish at 150 μl per well to wash the cells.
# (§4) After the 96-well culture dish was shaded by wrapping with aluminum foil, irradiation of the culture dish shaded with aluminum foil with light was carried out using a light irradiation device (a solar simulator SXL-2500V2: SERIC LTD.) for 40 minutes (the light irradiation dose is about 5 J/cm^2 by calculation based on irradiation strength at 360 nm). Immediately after light irradiation, the 96-well culture dish was washed twice with 150 μl of a DMEM/F12 culture liquid and a DMEM/F12 culture liquid supplemented with N2-supplement was then added to the 96-well culture dish at 100 μl per well, followed by cultivation overnight.
# (§5) After the cultivation, the medium was removed from the 96-well culture dish and a previously prepared mixed solution of equal amounts of DMEM/F12 culture liquid and Cell titer Glo reaction liquid was then added to the 96-well culture dish at 100 μl per well.
# (§6) The obtained 96-well culture dish was allowed to stand at room temperature for 30 minutes while shaking in a shaded state with aluminum foil and 95 μl of culture contained in the 96-well culture dish was then transferred to a white 96-well examining dish.
# (§7) Next, the amount of luminescence of the culture contained in the 96-well examining dish (the amount of luminescence has a correlation with the cell survival rate) was measured by EnVision Multilabel Reader (PerkinElmer). The 50% inhibitory concentration (IC50) of a test substance to the human retinal pigment epithelial cells was calculated from the measured values and the calculated value was considered as a value showing cytotoxicity (an index value correlated therewith).
# (§8) The “Balb/c 3T3 cells” cultured in DMEM medium supplemented with 10% bovine serum and L-glutamine were treated with 0.25% trypsin to collect the cells from a culture dish. The collected cells were seeded in a 96-well culture dish previously coated with a 0.1% gelatin solution at 10000 cells per well and then cultured in DMEM medium supplemented with 10% bovine serum and L-glutamine in an incubator at 37° C. and 5% CO2 overnight.
# (§9) Unlike Comparative Example 1, light irradiation was carried out using a light irradiation device (a solar simulator SXL-2500V2: SERIC LTD.) for 40 minutes without wrapping the 96-well culture dish with aluminum foil (light irradiation dose is about 5 J/cm^2 by calculation based on light irradiation strength at 360 nm). Immediately after light irradiation, the 96-well culture dish was washed twice with 150 μl of a DMEM/F12 culture liquid and a DMEM/F12 culture liquid supplemented with N2-supplement was then added to the 96-well culture dish at 100 μl per well, followed by cultivation overnight.
# as §6, with “dish. Next, the amount of luminescence of the culture contained in the 96-well examining dish (the amount of luminescence has a correlation with the cell survival rate) was measured by EnVision Multilabel Reader (PerkinElmer).” for “dish.”
# [1] = tested on: human retinal pigment epithelial cells; experiment: in vitro
# Method: (§10) The human retinal pigment epithelial cells prepared in Example 2 were treated with 0.25% trypsin to collect the cells from a culture dish. The collected cells were seeded in a 96-well culture dish previously coated with Matrigel at 100000 or 120000 cells per well and then cultured in an incubator at 37° C. and 5% CO2.
# (§11) After the cultivation for 2 hours to 4 hours, the medium was removed from the 96-well culture dish using an aspirator and Earle's Balanced Salt Solution (EBSS) was then added to the 96-well culture dish at 150 μl per well to wash the cells.
# as §4, with “minutes (light” for “minutes (the light”, “dose of” for “dose is”, “5 J/cm^2).” for “5 J/cm^2 by calculation based on irradiation strength at 360 nm).”
# as §5
# as §7, with “The obtained 96-well culture dish was allowed to stand at room temperature for 30 minutes while shaking in a shaded state with aluminum foil and 95 μl of culture contained in the 96-well culture dish was then transferred to a white 96-well examining dish. Next,” for “Next,”
# (§12) Unlike Example 3, irradiation with light was carried out using a light irradiation device (a solar simulator SXL-2500V2: SERIC LTD.) for 40 minutes without wrapping the 96-well culture dish with aluminum foil (light irradiation dose is about 5 J/cm^2 by calculation based on light irradiation strength at 360 nm). Immediately after light irradiation, the 96-well culture dish was washed twice with 150 μl of a DMEM/F12 culture liquid and a DMEM/F12 culture liquid supplemented with N2-supplement was then added to the 96-well culture dish at 100 μl per well, followed by cultivation overnight.
# (§13) The above-described PIF value (Photo Irritation Facor value) was obtained based on the 50% inhibitory concentration (IC50) calculated in Example 3 and Example 4 (that is, a value obtained by dividing the cytotoxicity IC50 value in human retinal pigment epithelial cells exposed to a test substance (a (shaded) control for non-light Irradiation) by the cytotoxicity IC50 value in human retinal pigment epithelial cells cultured under simulated solar light irradiation within 24 hours after the onset of exposure to the test substance). […] When the value (PIF value) was greater than 5, the test substance was evaluated as phototoxicity-positive.
# in vitro [2] = details: human, IC50 (50% inhibitory concentration, cytotoxicity)
# Method: as §10, §11
# as §4, with “minutes (light” for “minutes (the light”, “dose of” for “dose is”, “5 J/cm^2).” for “5 J/cm^2 by calculation based on irradiation strength at 360 nm).”
# as §5
# as §7, with “The obtained 96-well culture dish was allowed to stand at room temperature for 30 minutes while shaking in a shaded state with aluminum foil and 95 μl of culture contained in the 96-well culture dish was then transferred to a white 96-well examining dish. Next,” for “Next,”
# as §12, §13
# yeast-RBC = details: 4 facilities, validation study report Aug. 27, 2004; cited from earlier work
# in vitro [3] = details: mouse, IC50 (50% inhibitory concentration, cytotoxicity)
# Method: as §1, §2, §3, §4, §5, §6, §7, §8, §9
# as §6, with “dish. Next, the amount of luminescence of the culture contained in the 96-well examining dish (the amount of luminescence has a correlation with the cell survival rate) was measured by EnVision Multilabel Reader (PerkinElmer).” for “dish.”
# [4] = tested on: human retinal pigment epithelial cells
# Method: The relationship between the light irradiation dose and the above-described PIF value (that is, a value obtained by dividing the cytotoxicity IC50 value in human retinal pigment epithelial cells exposed to a test substance (a (shaded) control for non-light irradiation) by the cytotoxicity IC50 value in human retinal pigment epithelial cells cultured under simulated solar light irradiation within 24 hours after the onset of contact with the test substance) was examined using chlorpromazine (CPZ) used as a positive control in the OECD guideline. Light irradiation was set to each condition of a light of 2.09 mW/cm^2 (measured with UVR300 manufactured by TOPCON CORPORATION equipped with photoreceiving part UD360) for 15 minutes (1.87 J/cm^2), 20 minutes (2.50 J/cm^2), 25 minutes (3.13 J/cm^2), 30 minutes (3.75 J/cm^2), 40 minutes (5.00 J/cm^2) and 60 minutes (7.51 J/cm^2), and the phototoxicity test method was carried out according to the methods described in Example 3 and Example 4. The phototoxicity test method in shaded conditions as a control for non-light irradiation was carried out in the same manner as in the phototoxicity test method under light irradiation except that light was blocked.
# The number of viable cells of the human retinal pigment epithelial cells was checked for 15 minutes (1.87 J/cm^2), 20 minutes (2.50 J/cm^2), 25 minutes (3.13 J/cm^2), 30 minutes (3.75 J/cm^2), 40 minutes (5.00 J/cm^2) and 60 minutes (7.51 J/cm^2).
# [5] = shaded (control for non-light irradiation)
# [6] = shaded with aluminum foil (control for non-light irradiation), 40 minutes, then cultivation overnight
# [7] = simulated solar light irradiation 40 minutes, about 5 J/cm^2
# [8] = simulated solar light irradiation 40 minutes, about 5 J/cm^2 at 360 nm, then cultivation overnight
SMILES,photocytotoxicity determination by the comparative phototoxicity test method (Balb/c 3T3 cells),"PIF value (Photo Irritation Facor value) = IC50 shaded / IC50 under light irradiation (Balb/c 3T3 cells; mouse, 40 min)",photocytotoxicity determination by the phototoxicity test method of the present invention [1],"IC50 (50% inhibitory concentration, cytotoxicity) ([1]; human, 40 min)",IC50 at 40 min (in vitro [2]),result in the yeast-RBC assay (yeast-RBC),"IC50 (50% inhibitory concentration, cytotoxicity) (Balb/c 3T3 cells; mouse, 40 min)","PIF value (Photo Irritation Facor value) = IC50 shaded / IC50 under light irradiation ([1]; human, 40 min)",photocytotoxicity determination by the comparative phototoxicity test method (Balb/c 3T3 cells; evaluation based on PIF value),photocytotoxicity determination by the phototoxicity test method of the present invention ([1]; evaluation based on PIF value),other results
"Oc1c(Cl)cc(Cl)cc1Sc1cc(Cl)cc(Cl)c1O [Bithionol, bithionol]",photocytotoxicity-positive,12.4,photocytotoxicity-negative,> 10 µg/mL,> 10 µg/mL,false positive,,,,,"concentration at or below which cytotoxicity was not observed ([1]; human, 40 min): ≤ 10 µg/mL"
"[H]/N=C(\N/C(=N/[H])NCCCCCCNC(=N)NC(=N)Nc1ccc(Cl)cc1)Nc1ccc(Cl)cc1 [Chlorhexidine, chlorhexidine]",photocytotoxicity-negative,1.4,photocytotoxicity-negative,43.7 µg/mL,42.7 µg/mL,false positive,10.1 µg/mL,0.98,,,IC50 at 40 min (in vitro [3]): 13.7 µg/mL
"CN(C)CCCN1c2ccccc2Sc2ccc(Cl)cc21 [Chlorpromazine (CPZ), chlorpromazine]",photocytotoxicity-positive,23.7,photocytotoxicity-positive,,,,,6.5,,,"PIF ([4]; 15 min): 1.70; PIF ([4]; 20 min): 1.72; PIF ([4]; 25 min): 3.35; light irradiation dose by which the number of viable cells under light irradiation significantly decreases relative to light blocked conditions ([4]; 25 min, 10 μg/ml): ≥ 3.13 J/cm^2; PIF ([4]; 30 min): 4.57; PIF ([4]; 40 min): 6.53; PIF ([4]; 60 min): 10.94"
"CC1(C)S[C@@H]2[C@H](NC(=O)Cc3ccccc3)C(=O)N2[C@H]1C(=O)O [Penicillin G, penicillin G]",,,,,,,,,photocytotoxicity-negative,photocytotoxicity-negative,"PIF value (Photo Irritation Facor value) = IC50 shaded / IC50 under light irradiation (Balb/c 3T3 cells; from Comparative Example 1 and Comparative Example 2, greater than 5 = phototoxicity-positive): Photocytotoxicity is not Confirmed; concentration at or below which cytotoxicity was not observed (Balb/c 3T3 cells; [5]): ≤ 1000 µg/mL; IC50 (50% inhibitory concentration, cytotoxicity) (Balb/c 3T3 cells; [6]): > 1000 µg/mL; concentration at or below which cytotoxicity was not observed (Balb/c 3T3 cells; [7]): ≤ 1000 µg/mL; IC50 (50% inhibitory concentration, cytotoxicity) (Balb/c 3T3 cells; [8]): > 1000 µg/mL; PIF value (Photo Irritation Facor value) = IC50 shaded / IC50 under light irradiation ([1]; from Example 3 and Example 4, greater than 5 = phototoxicity-positive): Photocytotoxicity is not Confirmed; concentration at or below which cytotoxicity was not observed [1, 5]: ≤ 1000 µg/mL; IC50 (50% inhibitory concentration, cytotoxicity) [1, 6]: > 1000 µg/mL; concentration at or below which cytotoxicity was not observed [1, 7]: ≤ 1000 µg/mL; IC50 (50% inhibitory concentration, cytotoxicity) [1, 8]: > 1000 µg/mL"
"C=C[C@H]1C[N@@]2CC[C@H]1C[C@H]2[C@H](O)c1ccnc2ccc(OC)cc12 [Quinine, quinine]",,128.8,,88.9 µg/mL,147 µg/mL,,2.3 µg/mL,1.7,photocytotoxicity-positive,photocytotoxicity-negative,"IC50 (Balb/c 3T3 cells; mouse, 40 min): 292 µg/mL"
